“Also recorded” adds a separate entry of the source.
Tests used:
[1] = tested on: Striga hermonthica seeds; experiment: Striga hermonthica seed germination bioassay with root exudates of treated rice seedlings; type: in vivo
Description: For SL analysis, one-week-old seedlings were transferred into 50 ml falcon tubes (two seedlings per tube), containing half-strength Hoagland nutrient solution with K2HPO4.2H2O (+Pi), and grown in the biochamber for one week. Rice seedlings were then subjected to phosphate deficiency (−Pi) for another one week. On the day of root exudates collection, rice seedlings were first treated with 5 μM Zaxinone, or MZ compounds for 6 h, and then root exudates and root tissues were collected from each tube for LC-MS/MS analysis and Striga bioassays. Striga hermonthica seed germination bioassays were conducted by following the procedure as described previously. About 50-100 sterilized Striga seeds were spread on a glass fiber filter paper disc. Then 12 discs with Striga seeds were put on a sterilized filter paper, moistened with 3 ml sterilized water in a 90 mm petri plate. The plates were sealed with parafilm and cover with aluminum foil. All the plates were kept at 30° C. for 10 days for pre-conditioning. On 11th day, six dry discs with pre-conditioned seeds were selected and put in a 90 mm petri-dish. A filter paper ring moistened with 0.9 ml sterile MilliQ water was placed in the plate. The root exudates collected from Zaxinone or MZ compounds treated rice seedlings was applied at 50 μl on each six disc. Sterile MilliQ water and standard SL analog GR24 (2.5 μM) were included as a negative and positive control, respectively. After application, Striga seeds were incubated in dark at 30° C. for 24 hours. Germination (seeds with radicle emerging through seed coat) was scored under a binocular microscope, and germination rate (%) was calculated.

[2] = tested on: Gigaspora margarita spores; experiment: Gigaspora margarita spores germination; type: in vivo; details: 5 μM and 50 nM, 3 and 7 days
Description: Spores were sterilized in a solution of Streptomycine sulphate (0.03% W/V) and Chloramine T (3% W/V) and germinated in 200 μl of MZ3 and MZ5 at 5 μM or 50 nM, GR24 10 nM or a solution of Water/Acetone (12.5 μl acetone in 25 ml water). For each treatments 96 sterilized spores were placed individually in the wells of a multi-well plate and treated with freshly prepared solutions at the beginning of the experiment and after 3 days. Spores were germinated in the dark at 30° C. and the germination rate was evaluated after 3 days and 7 days.

[3] = tested on: SL biosynthesis genes D27, CCD7, CCD8, CO; experiment: qRT-PCR transcript analysis of SL biosynthesis genes in rice roots; type: in vivo; details: 5 μM
Description: For transcript analysis, one-week-old seedlings were grown hydroponically in half-strength modified Hoagland nutrient solution with K2HPO4.2H2O (+Pi) and without K2HPO4.2H2O (+Pi) (−Pi) for 7 days. Seedlings were further treated with zaxinone or MZ compounds for 6 h, and tissues were collected.
Roots of rice seedling were ground and homogenized in liquid nitrogen, and total RNA was isolated using a Direct-zol RNA Miniprep Plus Kit following the manufacturer's instructions (ZYMO RESEARCH; USA). cDNA was synthesized from 1 μg of total RNA using iScript cDNA Synthesis Kit (BIO-RAD Laboratories, Inc, 2000 Alfred Nobel Drive, Hercules, Calif.; USA) according to the instructions in the user manual. The gene expression level was detected by real-time quantitative RT-PCR (qRT-PCR) which was performed using SYBR Green Master Mix (Applied Biosystems; www.lifetechnologies.com) in a CFX384 Touch™ Real-Time PCR Detection System (BIO-RAD Laboratories, Inc, 2000 Alfred Nobel Drive, Hercules, Calif.; USA). The gene expression level was calculated by normalization of a housekeeping gene in rice, Ubiquitin (OsUBQ) (Table 1). The relative gene expression level was calculated according to 2-^ΔΔCT method.

[4] = tested on: strigolactones (4-deoxyorobanchol, orobanchol) release; experiment: LC-MS/MS quantification of SLs in rice root exudates; type: in vivo; details: 5 μM
Description: For SL analysis, one-week-old seedlings were transferred into 50 ml falcon tubes (two seedlings per tube), containing half-strength Hoagland nutrient solution with K2HPO4.2H2O (+Pi), and grown in the biochamber for one week. Rice seedlings were then subjected to phosphate deficiency (−Pi) for another one week. On the day of root exudates collection, rice seedlings were first treated with 5 μM Zaxinone, or MZ compounds for 6 h, and then root exudates and root tissues were collected from each tube for LC-MS/MS analysis and Striga bioassays.
For the quantification of SLs in rice root exudates, 50 ml of root exudates spiked with 0.672 ng of D6-5-deoxystrigol, was brought on a 500 mg/3 ml fast SPE C18 column preconditioned with 6 ml of methanol and 3 ml of water. After washing with 3 ml of water, SLs were eluted with 5 ml of acetone. The 4-deoxyorobanchol fraction (acetone-water solution) was concentrated to SL aqueous solution (˜500 μl), followed by the extraction with 1 ml of ethyl acetate. 750 μl of SLs enriched organic phase was then transferred to 1.5 ml tube and evaporated to dryness under vacuum. The dried extract was dissolved in 100 μl of acetonitrile:water (25:75, v:v) and filtered through a 0.22 µm filter for LC-MS/MS analysis.

[5] = tested on: zas mutant and Nipponbare wild-type rice seedlings; experiment: Hydroponic rice growth, zas mutant rescue and tillering; type: in vivo; details: hydroponic system, 2.5 μM
Description: For rescuing zas mutant phenotypes and investigating the effect of the compounds MZ3 and MZ5 on different genotypes, one week-old seedlings were grown hydroponically in half-strength modified Hoagland nutrient solution containing K2HPO4.2H2O (+Pi), 2.5 μM and 5 μM zaxinone or compounds (MZ2-MZ5) (dissolved in 0.1% acetone) or the corresponding volume of the solvent (control) for 21 days (i.e. 3 weeks). The solution was changed every other day, adding the chemical at each renewal.

[6] = Chemical stability in aqueous solution by HPLC; type: physicochemical; details: 14-day HPLC analysis, room temperature (21±1° C.), pH 5.0-6.0 aqueous solution; compared with MZ5
Description: MZ3, and MZ5 were tested for their chemical stability at 21±1° C. with pH 5.0-6.0 aqueous solution following the protocol described recently. 50 μl of each compound solutions (1 mg ml-1) was prepared with 175 μl ethanol and 750 μl Mili-Q water. Thereafter, 25 μl Indanol (1 mg ml-1, internal standard) was spiked in 975 μl previous prepared solution. The degradation was monitored at a time course by UPLC analysis using an Agilent HPLC ZORBAX Eclipse XDB-C18 column (3.5 μm, 4.6×150 mm), eluted first by 5% acetonitrile in water for 0.5 min then by a gradient flow from 5% to 100% acetonitrile within 18 min, and by 100% acetonitrile for 5 min. The column was operated at 40° C. at 0.35 ml min^−1 flow rate. Compounds eluted from the column were detected with a photodiode array detector, and the relative quantity of non-degraded amount was calculated by integration comparison with Indanol.
Zaxinone was tested under the same conditions for comparison. Synthetic zaxinone was purchased (customized synthesis) from Buchem B.V. (Apeldoorn, The Netherlands).

COc1ccc(Oc2cccc(/C=C/C(C)=O)c2)cc1 [MZ3, (E)-4-(3-(4-methoxyphenoxy)phenyl)but-3-en-2-one]
lowering of Striga seed germinating activity of collected exudates ([1]; exudates of Pi-starved WT rice seedlings exposed to 5 μM for 6 hours (FIG. 10)): around 40% | decrease of Striga seed germination rate ([1]; exudates of rice seedlings treated with 5 μM compound, Pi starvation (FIG. 2)): ~45% | spore germination rate [2]: no effect | CCD7 and CO transcript level compared with Zaxinone ([3]; wild-type rice roots, Pi starvation, 6 h (FIGS. 12A-12D)): significantly lower | transcript levels of SL biosynthesis enzymes D27, CCD7, CCD8 and CO ([3]; wild-type rice seedlings, Pi-starvation, 6 h): strongest inhibition; also recorded: pronounced decrease | Oro content in root exudates ([4]; Pi-starved WT rice, 6 hours, control 20): 5 pgmg-1dry-root-weight | 4DO content in root exudates ([4]; Pi-starved WT rice, 6 hours, control 25): 10 pgmg-1dry-root-weight | effect on 4-deoxyorobanchol relative to Zaxinone ([4]; roots and root exudates, Pi-starved WT rice, 6 hours): significantly stronger | SL level of the root exudate ([4]; wild-type rice seedlings, Pi-starvation, 6 h, compared with Zaxinone (FIGS. 19, 20A-20B)): obvious effect | SL content in zas mutant (high SL phenotype) ([4]; zas mutant rice roots and root exudates, Pi starvation (FIGS. 11A-11B)): strongly inhibited | root length of wild-type plants relative to zaxinone [5]: more active than zaxinone | stability (relative amount of non-degraded compound) [6]: much more stable

— patent US20220400669A1, “COMPOUNDS AND METHODS FOR PROMOTING PLANT GROWTH” (King Abdullah University of Science and Technology, priority 2019, published 2022)
